Measurements as given in patent US20020132809A1, “Heterocyclic carboxamide derivatives as inhibitors of nitric oxide production” (Fujisawa Pharmaceutical Co. Ltd., priority 1998, published 2002).

Test system: rat cardiac allograft
Assay: Protective effect of the compound (a) combined with FK506 on rat cardiac allograft
Assay type: in vivo
Details: single-drug group: FK506 0.32 mg/kg, daily gastric intubation for 14 days; Lewis donor to ACI recipient heterotopic cardiac transplantation
Method: Test 2: Protective Effect of the Compound (a) Combined with FK 506 on Rat Cardiac Allograft
Experiments were performed on male Lewis and ACI rats weighing 175-200 g. Rats were anesthetized with sodium pentobarbital (50 mg/kg, i.p.), and underwent allogeneic (Lewis donor to ACI recipient) heterotopic intra-abdominal cardiac transplantation. Experimental groups were divided into single-drug group and combined-drug group. Single-drug dose of FK506, which was prepared in a manner similar to that disclosed in EP-0184162, was 0.32 mg/kg. Combined-drug dose was FK506 (0.32 mg/kg)+the compound (a) (10 mg/kg). The grafted hearts were monitored by daily palpation where complete rejection was defined as the cessation of palpable contractile activity. Each drug was suspended in a solution of 0.5% methylcellulose, and administered by daily gastric intubation in a volume of 5 ml/kg of body weight for 14 days.
The combination of the compound (a) and an immunosuppressive agent (FK506) was examined to determine whether it could improve rat cardiac allograft survival.

SMILES: C=CC[C@@H]1/C=C(\C)C[C@H](C)C[C@H](OC)[C@H]2O[C@@](O)(C(=O)C(=O)N3CCCC[C@H]3C(=O)O[C@H](/C(C)=C/[C@@H]3CC[C@@H](O)[C@H](OC)C3)[C@H](C)[C@@H](O)CC1=O)[C@H](C)C[C@@H]2OC [FK506]
- MST (day) (Median Survival Time): 10 days
